Data taken from patent US20070225303A1, “8-Oxoadenine Compound” (priority 2004, published 2007).

How the values were obtained:
spleen cells = assay: cells; assay type: cell-based; conditions: 24 h, read-out: Minimum effective concentration (interferon inducing activity), CD(SD)IGS rat spleen cells, 24 hours incubation; interferon in supernatant by L929/vesicular stomatitis virus bioassay
[1] = Metabolic stability test using human plasma; assay type: in vitro ADME; conditions: 1 μM test compound, 37° C. for 15 minutes, residual amount per pre-metabolization concentration as 100%
Method: Plasma was prepared from fresh human blood and the test compound (containing 1% DMSO) of the final concentration of 1 μM was added thereto.
After a metabolic reaction by plasma esterase was conducted at 37° C. for 15 minutes, the test compound was extracted with ethyl acetate, and quantitatively analyzed by reverse phase HPLC. The metabolic stability of the test compound was shown by the residual amount (%) per the concentration of pre-metabolization as 100%.

[2] = Metabolic stability test on rat liver S9; assay type: in vitro ADME; conditions: rat liver S9 with NADPH, 1 μM test compound, 37° C.; residual rate after reaction, LC/MS
Method: The reaction using liver S9 of rat was conducted on a 96-well plate by using a screening robot by Tecan Company. S9 solution was prepared by adding 250 mM Kpi (pH 7.4) 20 ml and deionized water 20 ml to 10 ml of liver S9 of rat, a Cofactor solution was prepared by dissolving NADPH 220 mg in deionized water 40.5 ml (Final 6 mM), and IS (Internal Standard) solution was prepared by adding IS solution (1 mM DMSO solution) 300 μl to acetonitrile 30 ml (100 times dilution). The test compound (1 μM DMSO solution) was dissolved in an incubator at 37° C. After each 35 μL was poured in a 96-well plate (24 samples/plate), plates (sample plates, 96-well plates for dilution, each Deep well plates for the reaction and the recovery, plates for extraction of a solid phase) and reagents (S9 solution, Cofactor solution, IS (Internal Standard) solution, Stop solution, acetonitrile for elution) were set to the specified position in the booth of the robot, and the reaction started (the concentration of the test compounds was 1 μM). Incubation was conducted under shaking at 37° C., the solid phase was extracted (at the same time, the internal standard for analysis was added). To the recovered samples 200 μL/well was added 50 μL of acetonitrile per each well, and to 2 plates of FALCON Deep well were poured 100 μL/well of the solution per well. By subjecting to the LC/MS analysis, the chromatography of the test compound and the internal standard were described and the peak area was calculated. And then, the stability (residual rate after reaction) was calculated.

SMILES	minimal effective concentration (spleen cells) [µM]	Residual rate [1] [%]	Residual rate [2] [%]
Nc1nc(SCCCO)nc2c1nc(O)n2Cc1cccc(CC(=O)O)c1 [Comparative example 1, 9-(3-Carboxymethylbenzyl)-8-hydroxy-2-(3-hydroxypropylthio)adenine, reference compound]	> 1		
Nc1nc(SCCCCO)nc2c1nc(O)n2Cc1cccc(CC(=O)O)c1 [Comparative example 2, 9-(3-Carboxymethylbenzyl)-8-hydroxy-2-(4-hydroxybutylthio)adenine, reference compound]	1		
COC(=O)Cc1cccc(Cn2c(O)nc3c(N)nc(SCCCO)nc32)c1 [Example 1, 8-Hydroxy-2-(3-hydroxypropylthio)-9-(3-methoxycarbonylmethylbenzyl)adenine]	0.01	<1	
COC(=O)Cc1cccc(Cn2c(O)nc3c(N)nc(SCCCCO)nc32)c1 [Example 2, 8-Hydroxy-2-(4-hydroxybutylthio)-9-(3-methoxycarbonylmethylbenzyl)adenine]	0.01	<1	
COC(=O)Cc1cccc(Cn2c(O)nc3c(N)nc(OCCCO)nc32)c1 [Example 4, 8-Hydroxy-2-(3-hydroxypropoxy)-9-(3-methoxycarbonylmethylbenzyl)adenine]	0.03	3.2	8
COC(=O)Cc1cccc(Cn2c(O)nc3c(N)nc(OCCO)nc32)c1 [Example 5, 8-Hydroxy-2-(2-hydroxyethoxy)-9-(3-methoxycarbonylmethylbenzyl)adenine]	0.1	5.8	
CCCCOc1nc(N)c2nc(O)n(CCc3cccc(CC(=O)OC)c3)c2n1 [Example 9, 2-Butoxy-8-hydroxy-9-[2-(3-methoxycarbonylmethylphenyl)ethyl]adenine]	0.03	7.9	0
CCCCOc1nc(N)c2nc(O)n(CCCc3cccc(CC(=O)OC)c3)c2n1 [Example 10, 2-Butoxy-8-hydroxy-9-[3-(3-methoxycarbonylmethylphenyl)propyl]adenine]	0.01	<1	1
COC(=O)Cc1cccc(Cn2c(O)nc3c(N)nc(OCC(O)CO)nc32)c1 (stereo not shown) [Example 11, 2-(2,3-Dihydroxy-1-propoxy)-8-hydroxy-9-(3-methoxycarbonylmethylbenzyl)adenine]		20.9	
CCOCCOc1nc(N)c2nc(O)n(Cc3cccc(CC(=O)OC)c3)c2n1 [Example 12, 2-(2-Ethoxyethoxy)-8-hydroxy-9-(3-methoxycarbonylmethylbenzyl)adenine]			0
COC(=O)Cc1cccc(Cn2c(O)nc3c(N)nc(OCC4CCCCC4)nc32)c1 [Example 13, 2-Cyclohexylmethoxy-8-hydroxy-9-(3-methoxycarbonylmethylbenzyl)adenine]			11
COC(=O)CCc1nc(N)c2nc(O)n(Cc3cccc(CC(=O)OC)c3)c2n1 [Example 15, 8-Hydroxy-2-(2-methoxycarbonylethyl)-9-(3-methoxycarbonylmethylbenzyl)adenine]			0
CCCCOc1nc(N)c2nc(O)n(Cc3ccc(CC(=O)OC)s3)c2n1 [Example 16, 2-Butoxy-8-hydroxy-9-{(5-methoxycarbonylmethyl-2-thienyl)methyl}adenine]			0
CCCCOc1nc(N)c2nc(O)n(Cc3cccc(CC(=O)OC)n3)c2n1 [Example 18, 2-Butoxy-8-hydroxy-9-{(6-methoxycarbonylmethyl-2-pyridyl)methyl}adenine]			0
CCCCOc1nc(N)c2nc(O)n(Cc3cc(CC(=O)OC)ccn3)c2n1 [Example 19, 2-Butoxy-8-hydroxy-9-{(4-methoxycarbonylmethyl-2-pyridyl)methyl}adenine]			0
CCCCOc1nc(N)c2[nH]c(=O)n(Cc3cc(CC(=O)OC)ccc3OC)c2n1 [Example 20, 2-Butoxy-8-hydroxy-9-[(2-methoxy-5-methoxycarbonylmethyl)benzyl]adenine]			0
CCCCOc1nc(N)c2[nH]c(=O)n(Cc3ccc(F)c(CC(=O)OC)c3)c2n1 [Example 21, 2-Butoxy-9-[(4-fluoro-3-methoxycarbonylmethyl)benzyl]-8-hydroxyadenine]			1
CCCCOc1nc(N)c2[nH]c(=O)n(Cc3ccc(OC)c(CC(=O)OC)c3)c2n1 [Example 22, 2-Butoxy-8-hydroxy-9-[(4-methoxy-3-methoxycarbonylmethyl)benzyl]adenine]			2
Nc1nc(OCCCO)nc2c1nc(O)n2Cc1cccc(CC(=O)O)c1 [compound 4, 9-(3-Carboxymethylbenzyl)-8-hydroxy-2-(3-hydroxypropoxy)adenine, reference compound]	> 1		
Nc1nc(OCCO)nc2c1nc(O)n2Cc1cccc(CC(=O)O)c1 [compound 5, 9-(3-Carboxymethylbenzyl)-8-hydroxy-2-(2-hydroxyethoxy)adenine, reference compound]	> 1		
CCCCOc1nc(N)c2nc(O)n(CCc3cccc(CC(=O)O)c3)c2n1 [compound 9, 2-Butoxy-9-[2-(3-carboxymethylphenyl)ethyl]-8-hydroxyadenine, reference compound]	0.3		
CCCCOc1nc(N)c2nc(O)n(CCCc3cccc(CC(=O)O)c3)c2n1 [compound 10, 2-Butoxy-9-[3-(3-carboxymethylphenyl)propyl]-8-hydroxyadenine, reference compound]	0.1		
